Assay results from PubChem BioAssay AID2060625 (Molecular Pharmacology Branch, DTP, NCI, 2025).
Where “and” joins values, the source holds several entries; their conditions need not be identical. Identical values can stand only once.

Test system: 186277-243-T-J2-PDC spheroids with HUVEC/MSC, viability
Assay: Anticancer human tumor 186277-243-T-J2-PDC patient-derived colon adenocarcinoma cell line growth inhibition [CLK]
Conditions: for viability, T/C: stronger effect = lower value
Method in brief: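 Multi-cell-type spheroids combined patient-derived tumor cells with HUVEC endothelial cells and human mesenchymal stem cells. Paired agents were dosed in half-log steps down from about clinical Cmax, or from 10 microM where Cmax was unknown.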

[1] = curve of first compound, second compound 0.0316 µM
[2] = curve of first compound, second compound 0.1 µM
[3] = curve of first compound, second compound 0.316 µM
[4] = curve of first compound, second compound 1 µM
[5] = curve of first compound, second compound 3.16 µM
[6] = curve of first compound, second compound 10 µM
[7] = second compound 0.0316 µM, first compound 0.0316 µM
[8] = second compound 0.0316 µM, first compound 0.1 µM
[9] = second compound 0.0316 µM, first compound 0.316 µM
[10] = second compound 0.0316 µM, first compound 1 µM
[11] = second compound 0.0316 µM, first compound 3.16 µM
[12] = second compound 0.0316 µM, first compound 10 µM
[13] = second compound 0.1 µM, first compound 0.0316 µM
[14] = second compound 0.1 µM, first compound 0.1 µM
[15] = second compound 0.1 µM, first compound 0.316 µM
[16] = second compound 0.1 µM, first compound 1 µM
[17] = second compound 0.1 µM, first compound 3.16 µM
[18] = second compound 0.1 µM, first compound 10 µM
[19] = second compound 0.316 µM, first compound 0.0316 µM
[20] = second compound 0.316 µM, first compound 0.1 µM
[21] = second compound 0.316 µM, first compound 0.316 µM
[22] = second compound 0.316 µM, first compound 1 µM
[23] = second compound 0.316 µM, first compound 3.16 µM
[24] = second compound 0.316 µM, first compound 10 µM
[25] = second compound 1 µM, first compound 0.0316 µM
[26] = second compound 1 µM, first compound 0.1 µM
[27] = second compound 1 µM, first compound 0.316 µM
[28] = second compound 1 µM, first compound 1 µM
[29] = second compound 1 µM, first compound 3.16 µM
[30] = second compound 1 µM, first compound 10 µM
[31] = second compound 3.16 µM, first compound 0.0316 µM
[32] = second compound 3.16 µM, first compound 0.1 µM
[33] = second compound 3.16 µM, first compound 0.316 µM
[34] = second compound 3.16 µM, first compound 1 µM
[35] = second compound 3.16 µM, first compound 3.16 µM
[36] = second compound 3.16 µM, first compound 10 µM
[37] = second compound 10 µM, first compound 0.0316 µM
[38] = second compound 10 µM, first compound 0.1 µM
[39] = second compound 10 µM, first compound 0.316 µM
[40] = second compound 10 µM, first compound 1 µM
[41] = second compound 10 µM, first compound 3.16 µM
[42] = second compound 10 µM, first compound 10 µM
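Note: compound exposure lasted seven days before readout.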
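Throughout, for viability, T/C: 100% = DMSO vehicle control wells.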

SMILES: CC1COCCN1c1cc(C2(S(C)(=N)=O)CC2)nc(-c2ccnc3[nH]ccc23)n1 (stereo unspecified) + CN1CCN(c2cc(C(=O)Nc3cc4cc(-c5cnn(C)c5)ccc4cn3)ccn2)CC1
- IC50 [1]: 2.25 µM
- IC50 [2]: 1.32 µM
- IC50 [3]: < 0.0316 µM
- IC50 [4]: < 0.0316 µM
- IC50 [5]: < 0.0316 µM
- IC50 [6]: < 0.0316 µM
- viability, T/C [7]: 93.4%
- viability, T/C [8]: 86.8%
- viability, T/C [9]: 105%
- viability, T/C [10]: 95%
- viability, T/C [11]: 31.2%
- viability, T/C [12]: 11.2%
- viability, T/C [13]: 76.9%
- viability, T/C [14]: 80.5%
- viability, T/C [15]: 74.2%
- viability, T/C [16]: 59.1%
- viability, T/C [17]: 22.6%
- viability, T/C [18]: 10.5%
- viability, T/C [19]: 23.9%
- viability, T/C [20]: 25.9%
- viability, T/C [21]: 24.3%
- viability, T/C [22]: 24.7%
- viability, T/C [23]: 19.7%
- viability, T/C [24]: 12.6%
- viability, T/C [25]: 0.89%
- viability, T/C [26]: 0.78%
- viability, T/C [27]: 0.7%
- viability, T/C [28]: 1.08%
- viability, T/C [29]: 1.18%
- viability, T/C [30]: 1.33%
- viability, T/C [31]: 1.91%
- viability, T/C [32]: 1.72%
- viability, T/C [33]: 1.28%
- viability, T/C [34]: 1.01%
- viability, T/C [35]: 1.48%
- viability, T/C [36]: 2.05%
- viability, T/C [37]: 0.93%
- viability, T/C [38]: 0.87%
- viability, T/C [39]: 1.19%
- viability, T/C [40]: 1.26%
- viability, T/C [41]: 1.01%
- viability, T/C [42]: 1.14%

SMILES: C=CC(=O)N1CCN(c2nc(=O)n(-c3c(C)ccnc3C(C)C)c3nc(-c4c(O)cccc4F)c(F)cc23)C(C)C1 (stereo unspecified) + CNC(=O)c1ccc(Nc2nc(OC3CCCC3)c3c(-c4ccc5nc(C)oc5c4)c[nH]c3n2)c(OC)c1
- IC50 [1]: > 10 µM
- IC50 [2]: > 10 µM
- IC50 [3]: 2.16 µM
- IC50 [4]: < 0.0316 µM
- IC50 [5]: < 0.0316 µM
- IC50 [6]: < 0.0316 µM
- viability, T/C [7]: 91.3%
- viability, T/C [8]: 89.6%
- viability, T/C [9]: 100%
- viability, T/C [10]: 86.2%
- viability, T/C [11]: 114%
- viability, T/C [12]: 110%
- viability, T/C [13]: 77.3%
- viability, T/C [14]: 79.4%
- viability, T/C [15]: 77.7%
- viability, T/C [16]: 77.8%
- viability, T/C [17]: 72%
- viability, T/C [18]: 58.2%
- viability, T/C [19]: 55.5%
- viability, T/C [20]: 51.2%
- viability, T/C [21]: 48%
- viability, T/C [22]: 57%
- viability, T/C [23]: 47.4%
- viability, T/C [24]: 38.5%
- viability, T/C [25]: 39.4%
- viability, T/C [26]: 39.4%
- viability, T/C [27]: 39.3%
- viability, T/C [28]: 34.7%
- viability, T/C [29]: 38.3%
- viability, T/C [30]: 28%
- viability, T/C [31]: 38.4%
- viability, T/C [32]: 38.2%
- viability, T/C [33]: 34.9%
- viability, T/C [34]: 34.3%
- viability, T/C [35]: 34.9%
- viability, T/C [36]: 23.8%
- viability, T/C [37]: 35.4%
- viability, T/C [38]: 33.5%
- viability, T/C [39]: 36.3%
- viability, T/C [40]: 37.8%
- viability, T/C [41]: 37.1%
- viability, T/C [42]: 24.4%

SMILES: CC(CO)NC(=O)c1cc(-c2ccc(Cl)cc2)nn(-c2cnn(C)c2)c1=O (stereo unspecified)
- viability, T/C (compound 0.0316 µM): 84.6% and 120%
- viability, T/C (compound 0.1 µM): 80.5% and 91.3%
- viability, T/C (compound 0.316 µM): 95.9% and 96.8%
- viability, T/C (compound 1 µM): 81% and 88.2%
- viability, T/C (compound 3.16 µM): 87.7% and 101%
- viability, T/C (compound 10 µM): 115% and 117%
- IC50 (curve of compound): > 10 µM
